According to patent publication US5238936A, “Trisubstituted triazines” (Adir et Compagnie, priority 1991, dated 1993):

What was measured:
line DC-3F/AD [1] = assay: Flow cytometry: intracellular accumulation of adriamycin by cells of the line DC-3F/AD; type: cell-based, Chinese hamster; conditions: ADR 50 μM, 5 hours
Source text: Also measured was the effect of the compounds on the intracellular concentration of the cytotoxic agent. In effect, the known compounds for reversing MDR act by increasing the intracellular concentration of cytotoxic agent. This effect is the consequence of inhibiting the action of gP 170 which is responsible for the efflux of the drug.
By measuring that fluorescence, it is thus possible to obtain a relative measurement of the intracellular concentration of ADR.
The cells 500×10^3 per ml were exposed simultaneously to ADR at a fixed concentration (50 μM) and to the tested compounds at various concentrations. After 5 hours' incubation, the intracellular accumulation of ADR was evaluated by FCM. […] The analysis of each of the samples was carried out on a total of 10,000 cells at a rate of 1,000 cells per second.
The results were presented in the form of linear histograms of the intracellular ADR fluorescence.
Expression of the results: for each of the histograms the mean fluorescence per channel (MEAN) was determined by the information system of the apparatus. For all experiments:
a negative control (cells without ADR) fixed the autofluorescence threshold.
a positive control (cells with ADR) determined the MEAN value=MN1.
the "test" tubes (cells with ADR and with compound) were used to determine, for each of the compounds and at each of the concentrations, the MEAN values=MN2.
The results are expressed in the form of variations from the mean fluorescence obtained for each of the "test" tubes (MN2) in relation to the mean fluorescence obtained with the positive control (MNl): VAR-MEAN=MN2-MN1. The parameter expressed is thus the increase in ADR fluorescence in the presence of the tested compounds.

line DC-3F/AD [2] = assay: Cytotoxicity (Microculture Tetrazolium Assay): reversal of resistance to actinomycin D, line DC-3F/AD; type: cell-based, Chinese hamster; conditions: 4 days
Source text: The pharmacological study of the compounds of the present invention consisted first of all in an evaluation in vitro carried out on resistant cells. The parameter measured is the cytotoxicity of the antitumour drug, quantified in the absence and in the presence of the reversing compound.
The cells are distributed on microplates and exposed to the cytotoxic compounds (actinomycin D for line DC-3F/AD and adriamycin for line KB-Al) at 9 concentrations (2 by 2 series dilutions). The compounds tested for their capacity to reverse MDR are added at the same time as the cytotoxic agent.
The cells are then incubated for 4 days. […] The results are expressed as a reversion factor (RF): PG,29 [formula]

resistant line P/388/VCR = assay: Antitumour activity in vivo: increase in antitumour activity of vincristine on murine leukaemia P 388/VCR; set-up: species or system murine; female B6D2Fl mice; conditions: with vincristine […] i.p., no compound: 146 ± 2
Source text: This study was completed by an in vivo study, using a murine leukaemia resistant to vincristine (P/388/VCR) and using the compounds in association with vincristine.
The sensitive parent line P 388 (murine leukaemia) and the sub-line resistant to vincristine, P 388/VCR, were supplied by NCI (Frederick, USA). The tumour cells (10^6 cells) were inoculated on day 0 into the intraperitoneal cavity of female B6D2Fl mice (Iffa Credo, France) weighing from 18 to 20 g (groups of 8 to 10 animals).
Every day for 4 days, starting from day 1, the animals received: […]
30 to 60 minutes later, an administration by the i.p. route of 0.25 mg/kg of vincristine (used as a reference antitumour agent).
The tumour activity is expressed as follows: [formula]
The values are mean values obtained in independent experiments (± sem when n is greater than or equal to 3).

Plasmodium falciparum = conditions: resistance to chloroquine; cited from earlier work
[3] = 50 mg/kg i.p. daily for 4 days, ± sem
[4] = 100 mg/kg i.p. daily for 4 days, ± sem

## C=CCNc1nc(NC)nc(N2CCC(NCC3c4ccccc4COc4ccccc43)CC2)n1 (racemic) [Example 28, 2-allylamino-4-methylamino-6-{4-[((R,S)-6,11-dihydro-dibenzo[b,e]oxepin-11-yl)methylamino]piperidin-1-yl}-1,3,5-triazine]
Line DC-3F/AD [1]; 1.0 μM compound
  VAR-MEAN (increase in ADR fluorescence), line DC-3F/AD: 4.3
Line DC-3F/AD [1]; 5.0 μM compound
  VAR-MEAN (increase in ADR fluorescence), line DC-3F/AD: 16.8
Line DC-3F/AD [1]; 10 μM compound
  VAR-MEAN (increase in ADR fluorescence), line DC-3F/AD: 21.5
Line DC-3F/AD [1]; […] compound
  VAR-MEAN (increase in ADR fluorescence), line DC-3F/AD: 12.8
Line DC-3F/AD [2]; 1 μM compound
  Reversion factors (cytotoxicity) with the line DC-3F/AD: 18.1
Line DC-3F/AD [2]; 5 μM compound
  Reversion factors (cytotoxicity) with the line DC-3F/AD: 600.4
Resistant line P/388/VCR; [3]
  T/C %: 170%
Resistant line P/388/VCR; [4]
  T/C %: 171%

## C=CCNc1nc(NCC)nc(N2CCC(NCC3c4ccccc4COc4ccccc43)CC2)n1 (racemic) [Example 29, 2-allylamino-4-ethylamino-6-{4-[((R,S)-6,11-dihydrodibenzo[b,e]oxepin-11-yl)methylamino]piperidin-1-yl}-1,3,5-triazine]
Line DC-3F/AD [1]; 1.0 μM compound
  VAR-MEAN (increase in ADR fluorescence), line DC-3F/AD: 6.4
Line DC-3F/AD [1]; 5.0 μM compound
  VAR-MEAN (increase in ADR fluorescence), line DC-3F/AD: 18.0
Line DC-3F/AD [1]; 10 μM compound
  VAR-MEAN (increase in ADR fluorescence), line DC-3F/AD: 21.8
Line DC-3F/AD [1]; […] compound
  VAR-MEAN (increase in ADR fluorescence), line DC-3F/AD: 13.3
Line DC-3F/AD [2]; 0.5 μM compound
  Reversion factors (cytotoxicity) with the line DC-3F/AD: 1.7
Line DC-3F/AD [2]; 1 μM compound
  Reversion factors (cytotoxicity) with the line DC-3F/AD: 33.8
Line DC-3F/AD [2]; 5 μM compound
  Reversion factors (cytotoxicity) with the line DC-3F/AD: 1327.5
Resistant line P/388/VCR; [3]
  T/C %: 171 ± 6%
Resistant line P/388/VCR; [4]
  T/C %: 185 ± 7%

## C=CCNc1nc(NCC=C)nc(N2CCC(NCC3c4ccccc4CCc4cc(OC)ccc43)CC2)n1 (racemic) [Example 31, 2,4-diallylamino-6-{4-[((R,S)-10,11-dihydro-5H-2-methoxydibenzo[a,d]cyclohepten-5-yl)methylamino]piperidin-1-yl)-1,3,5-triazine]
Line DC-3F/AD [1]; 1.0 μM compound
  VAR-MEAN (increase in ADR fluorescence), line DC-3F/AD: 9.4
Line DC-3F/AD [1]; 5.0 μM compound
  VAR-MEAN (increase in ADR fluorescence), line DC-3F/AD: 30.8
Line DC-3F/AD [1]; […] compound
  VAR-MEAN (increase in ADR fluorescence), line DC-3F/AD: 26.6
Line DC-3F/AD [2]; 0.5 μM compound
  Reversion factors (cytotoxicity) with the line DC-3F/AD: 3.1
Line DC-3F/AD [2]; 1 μM compound
  Reversion factors (cytotoxicity) with the line DC-3F/AD: 85.9
Line DC-3F/AD [2]; 5 μM compound
  Reversion factors (cytotoxicity) with the line DC-3F/AD: 1913.4
Resistant line P/388/VCR; [3]
  T/C %: 159%
Resistant line P/388/VCR; [4]
  T/C %: 177%

## C=CCNc1nc(NCC=C)nc(N2CCC(NCC3c4ccccc4CCc4ccccc43)CC2)n1 [Example 3, 2,4-Diallylamino-6-{4-[(10,11-dihydro-5H-dibenzo[a,d]cyclohepten-5-yl)methylamino]piperidin-1-yl}-1,3,5-triazine]
Line DC-3F/AD [1]; 1.0 μM compound
  VAR-MEAN (increase in ADR fluorescence), line DC-3F/AD: 20.2
Line DC-3F/AD [1]; 5.0 μM compound
  VAR-MEAN (increase in ADR fluorescence), line DC-3F/AD: 28.3
Line DC-3F/AD [1]; 10 μM compound
  VAR-MEAN (increase in ADR fluorescence), line DC-3F/AD: 29.6
Line DC-3F/AD [1]; […] compound
  VAR-MEAN (increase in ADR fluorescence), line DC-3F/AD: 25.8
Line DC-3F/AD [2]; 0.5 μM compound
  Reversion factors (cytotoxicity) with the line DC-3F/AD: 43
Line DC-3F/AD [2]; 1 μM compound
  Reversion factors (cytotoxicity) with the line DC-3F/AD: 236
Line DC-3F/AD [2]; 5 μM compound
  Reversion factors (cytotoxicity) with the line DC-3F/AD: 3187
Resistant line P/388/VCR; [3]
  T/C %: 208 ± 23%
Resistant line P/388/VCR; [4]
  T/C %: 193 ± 3%

## C=CCNc1nc(NCCC)nc(N2CCC(NCC3c4ccccc4CCc4ccccc43)CC2)n1 [Example 5, 2-allylamino-4-propylamino-6-{4-[(10,11-dihydro-5H-dibenzo[a,d]cyclohepten-5-yl)methylamino]piperidin-1-yl}-1,3,5-triazine]
Line DC-3F/AD [1]; 1.0 μM compound
  VAR-MEAN (increase in ADR fluorescence), line DC-3F/AD: 17.9
Line DC-3F/AD [1]; 5.0 μM compound
  VAR-MEAN (increase in ADR fluorescence), line DC-3F/AD: 27.3
Line DC-3F/AD [1]; 10 μM compound
  VAR-MEAN (increase in ADR fluorescence), line DC-3F/AD: 24.9
Line DC-3F/AD [1]; […] compound
  VAR-MEAN (increase in ADR fluorescence), line DC-3F/AD: 23.5
Line DC-3F/AD [2]; 0.5 μM compound
  Reversion factors (cytotoxicity) with the line DC-3F/AD: 3.8
Line DC-3F/AD [2]; 1 μM compound
  Reversion factors (cytotoxicity) with the line DC-3F/AD: 81
Line DC-3F/AD [2]; 5 μM compound
  Reversion factors (cytotoxicity) with the line DC-3F/AD: 2753
Resistant line P/388/VCR; [3]
  T/C %: 184%
Resistant line P/388/VCR; [4]
  T/C %: 195%

## C=CCNc1nc(NCC=C)nc(N2CCC(NCC3c4ccccc4C=Cc4ccccc43)CC2)n1 [Example 11, 2,4-diallylamino-6-{4-[(5H-dibenzo[a,d]cyclohepten-5-yl)methylamino]piperidin-1-yl}-1,3,5-triazine]
Line DC-3F/AD [1]; 1.0 μM compound
  VAR-MEAN (increase in ADR fluorescence), line DC-3F/AD: 12.7
Line DC-3F/AD [1]; 5.0 μM compound
  VAR-MEAN (increase in ADR fluorescence), line DC-3F/AD: 24.5
Line DC-3F/AD [1]; 10 μM compound
  VAR-MEAN (increase in ADR fluorescence), line DC-3F/AD: 25.8
Line DC-3F/AD [1]; […] compound
  VAR-MEAN (increase in ADR fluorescence), line DC-3F/AD: 20.2
Line DC-3F/AD [2]; 0.5 μM compound
  Reversion factors (cytotoxicity) with the line DC-3F/AD: 2
Line DC-3F/AD [2]; 1 μM compound
  Reversion factors (cytotoxicity) with the line DC-3F/AD: 26
Line DC-3F/AD [2]; 5 μM compound
  Reversion factors (cytotoxicity) with the line DC-3F/AD: 1408
Resistant line P/388/VCR; [3]
  T/C %: 156%
Resistant line P/388/VCR; [4]
  T/C %: 168 ± 15%

## C=CCNc1nc(NCC=C)nc(N2CCC(NCC3c4ccccc4CCCc4ccccc43)CC2)n1 [Example 20, 2,4-diallylamino-6-{4-[(5,6,7,12-tetrahydrodibenzo[a,d]cycloocten-12-yl)methylamino]piperidin-1-yl}-1,3,5-triazine]
Line DC-3F/AD [1]; 1.0 μM compound
  VAR-MEAN (increase in ADR fluorescence), line DC-3F/AD: 8.2
Line DC-3F/AD [1]; 5.0 μM compound
  VAR-MEAN (increase in ADR fluorescence), line DC-3F/AD: 22.3
Line DC-3F/AD [1]; 10 μM compound
  VAR-MEAN (increase in ADR fluorescence), line DC-3F/AD: 21.6
Line DC-3F/AD [1]; […] compound
  VAR-MEAN (increase in ADR fluorescence), line DC-3F/AD: 19.7
Line DC-3F/AD [2]; 0.5 μM compound
  Reversion factors (cytotoxicity) with the line DC-3F/AD: 3.4
Line DC-3F/AD [2]; 1 μM compound
  Reversion factors (cytotoxicity) with the line DC-3F/AD: 52
Line DC-3F/AD [2]; 5 μM compound
  Reversion factors (cytotoxicity) with the line DC-3F/AD: 2951
Resistant line P/388/VCR; [3]
  T/C %: 161%
Resistant line P/388/VCR; [4]
  T/C %: 174%

## C=CCNc1nc(NCC)nc(N2CCC(NCC3c4ccccc4CCc4ccccc43)CC2)n1 [Example 22, 2-allylamino-4-ethylamino-6-{4-[(10,11-dihydro-5H-dibenzo[a,d]cyclohepten-5-yl)methylamino]piperidin-1-yl}-1,3,5-triazine]
Line DC-3F/AD [1]; 1.0 μM compound
  VAR-MEAN (increase in ADR fluorescence), line DC-3F/AD: 15.1
Line DC-3F/AD [1]; 5.0 μM compound
  VAR-MEAN (increase in ADR fluorescence), line DC-3F/AD: 23.1
Line DC-3F/AD [1]; 10 μM compound
  VAR-MEAN (increase in ADR fluorescence), line DC-3F/AD: 24.9
Line DC-3F/AD [1]; […] compound
  VAR-MEAN (increase in ADR fluorescence), line DC-3F/AD: 21.9
Line DC-3F/AD [2]; 0.5 μM compound
  Reversion factors (cytotoxicity) with the line DC-3F/AD: 32
Line DC-3F/AD [2]; 1 μM compound
  Reversion factors (cytotoxicity) with the line DC-3F/AD: 177
Line DC-3F/AD [2]; 5 μM compound
  Reversion factors (cytotoxicity) with the line DC-3F/AD: 2499
Resistant line P/388/VCR; [3]
  T/C %: 159%
Resistant line P/388/VCR; [4]
  T/C %: 165%

## COc1ccc(CCN(C)CCCC(C#N)(c2ccc(OC)c(OC)c2)C(C)C)cc1OC (centres unmarked) [verapamil, reference compound]
Line DC-3F/AD [1]; 1.0 μM compound
  VAR-MEAN (increase in ADR fluorescence), line DC-3F/AD: 2.1
Line DC-3F/AD [1]; 5.0 μM compound
  VAR-MEAN (increase in ADR fluorescence), line DC-3F/AD: 5.6
Line DC-3F/AD [1]; 10 μM compound
  VAR-MEAN (increase in ADR fluorescence), line DC-3F/AD: 8.9
Line DC-3F/AD [1]; […] compound
  VAR-MEAN (increase in ADR fluorescence), line DC-3F/AD: 4.0
Resistant line P/388/VCR; [3]
  T/C %: 164%
Resistant line P/388/VCR; 75 mg/kg i.p. daily for 4 days
  T/C %: 177%
Plasmodium falciparum
  sensitivity of a chloroquine-resistant line: restores the sensitivity of a resistant line
